Source: BindingDB's records for doi:10.1021/jm980560x (University of Minnesota, 1999)

target: not listed separately; assay: Displacement of [3H]vesamicol from Vesicular Acetylcholine Transporter (VAChT)

Q: Which Ki does the source give for `O=C(c1ccccc1)N1CCC[C@@H]2C[C@@H](O)[C@H](N3CCC(c4ccccc4)CC3)C[C@H]21` [[(4aR,6R,7R,8aR)-6-Hydroxy-7-(4-phenyl-piperidin-1-yl)-octahydro-quinolin-1-yl]-phenyl-methanone] here?
A: The Ki was 0.3 nM.

Q: For `O[C@@H]1C[C@H]2CCCN(Cc3cccc(I)c3)[C@@H]2C[C@H]1N1CCC(c2ccccc2)CC1` [trans-trans-1-(3-iodobenzyl)-7-(4-phenylpiperidin-1-yl)-decahydroquinolin-6-ol], which Ki is on record?
A: The Ki was 0.26 nM.

Q: For `O[C@@H]1C[C@H]2CCCN(C/C=C/I)[C@@H]2C[C@H]1N1CCC(c2ccccc2)CC1` [(4aR,6R,7R,8aR)-1-((E)-3-Iodo-allyl)-7-(4-phenyl-piperidin-1-yl)-decahydro-quinolin-6-ol], which Ki is on record?
A: The Ki was 0.4 nM.

Q: With `O[C@@H]1C[C@@H]2[C@H](CCCN2Cc2ccc(F)cc2)C[C@H]1N1CCC(c2ccccc2)CC1` [(4aR,6R,7R,8aR)-1-(4-Fluoro-benzyl)-6-(4-phenyl-piperidin-1-yl)-decahydro-quinolin-7-ol] as the compound, how does the Ki read?
A: Its Ki is 10 nM.

Q: With `O[C@@H]1C[C@H]2CCCN(Cc3ccc(F)cc3)[C@@H]2C[C@H]1N1CCC(c2ccccc2)CC1` [trans-trans-1-(4-fluorobenzyl)-7-(4-phenylpiperidin-1-yl)-decahydroquinolin-6-ol] as the compound, how does the Ki read?
A: Its Ki is 0.99 nM.

Q: Which Ki does the source give for `O[C@@H]1C[C@@H]2[C@H](CCCN2Cc2cccc(I)c2)C[C@H]1N1CCC(c2ccccc2)CC1` [(4aR,6R,7R,8aR)-1-(3-Iodo-benzyl)-6-(4-phenyl-piperidin-1-yl)-decahydro-quinolin-7-ol] here?
A: Its Ki is 5.2 nM.

Q: Which Ki does the source give for `O[C@@H]1CCNC[C@H]1N1CCC(c2ccccc2)CC1` here?
A: The Ki was 2900 nM.

target: Sigma-2 receptor (Rattus norvegicus); assay: Binding affinity against Sigma-2 receptor in rat liver membranes using [3H]DTG (DuPont-NEN) as radioligand in the presence of (+)-pentazocine (100 nM)

Q: For `O[C@@H]1C[C@H]2CCCN(C/C=C/I)[C@@H]2C[C@H]1N1CCC(c2ccccc2)CC1` [(4aR,6R,7R,8aR)-1-((E)-3-Iodo-allyl)-7-(4-phenyl-piperidin-1-yl)-decahydro-quinolin-6-ol], which Ki is on record?
A: The Ki was 363 nM.

Q: With `O[C@@H]1CCN(Cc2cccc(I)c2)C[C@H]1N1CCC(c2ccccc2)CC1` [(-)-1''-(3-Iodo-benzyl)-4-phenyl-[1,3'']bipiperidinyl-4''-ol] as the compound, how does the Ki read?
A: The Ki was 190 nM.
